In the oligonucleotide strings, read from the 5' end, every base follows the letter of its sugar. An asterisk marks phosphorothioate; unmarked linkages are phosphodiester. Other units and linkages are bracketed, terminal groups are in braces. A string of capitals states the bases alone. d = 2'-deoxy (DNA)
Legend:
[1] = system: HUP-T3 pancreatic cancer cells; experiment: Cellular proliferation of HUP-T3 pancreatic cancer cells in vitro
Excerpt: (§1) The aim of the study was to determine the effect of AP12009 (trabedersen) treatment in combination with 5-Fluorouracil (5-FU) on TGFβ2 secretion and on cellular proliferation of HUP-T3 pancreatic cancer cells and WiDr colon cancer cells in vitro.

TGFβ2 [2] = experiment: TGFβ2 secretion in A-172 glioma cells; type: cell-based
Description: (§2) A-172 glioma cells were treated with a combination of AP12009 (trabedersen) 0 to 10 μM) and different concentrations of TMZ (temozolomide) for 7 days (treatment schedule 2*2/1*3 d).
(§3) In summary there is no clear beneficial effect in combining AP12009 with TMZ in A-172 cells.

TGFβ2 [3] = experiment: TGFβ2 secretion/expression in HUP-T3 pancreatic cancer cells; type: cell-based
Excerpt: as §1

pancreatic cancer = experiment: Phase I/II study P-001, efficacy (PFS, OS) in pancreatic cancer patients; type: in vivo, human
Description: At screening, up to 10 “measurable lesions” (i.e. lesions that could be accurately measured in at least 1 dimension with a longest diameter of 2 cm) representative of all involved organs were identified as “target lesions” for tumor response assessment and were measured and documented. All other lesions were defined and recorded as “non-target lesions”. Tumor response was determined by the local investigator every 8 weeks after start of the first trabedersen cycle during follow-up visits, irrespective of whether the patient was still on treatment or off treatment. The tumor assessment was based on Response Evaluation Criteria in Solid Tumors (RECIST 1.0) criteria. The categories of overall tumor response are as follows: (1) Complete response (CR): disappearance of all target and non-target lesions and normalization of tumor marker level; (2) Partial response (PR): at least 30% decrease in the sum of the longest diameter (LD) of target lesions (baseline sum LD as reference) and/or persistence of one or more non-target lesions and/or maintenance of tumor marker level above normal limits; (3) Stable disease (SD): less than 30% decrease or less than 20% increase in sum LD target lesions (smallest sum LD since treatment start as reference) and/or persistence of one or more non-target lesions and/or maintenance of tumor marker level above normal limits; (4) Progressive disease (PD) At least 20% increase in sum LD target lesions (smallest sum LD since treatment start as reference) and/or unequivocal progression of existing nontarget lesions and/or appearance of one or more new lesions; and (5) Unknown.
Progression-free survival (PFS) was defined as the time from Day 1 until tumor progression or death from any cause. The date of progression was either the date of the image showing progression or the date of treatment termination in case one of the reasons for treatment termination was tumor progression (referring to clinical progression as assessed by the Investigator), whichever occurred first.
Overall survival (OS) was defined as the time from Day 1 until death from any cause. All patients were followed for survival during the follow-up assessments every 8 weeks. The survival status was documented at the Final Visit (Day 29) and during the 8-weekly post-treatment follow-up assessments, and was continued to be collected after study closure until database lock or until the patient was lost to follow-up.
There were […] line patients and 11 third line and beyond on the 4 days on and 10 days off regimen. The PFS/OS (progression free survival/overall survival ratio) of these second line patients in months were: 1.87/5.60 (N=6), 1.87/9.93 (N=11) and 2.72/11.80 (N=5) at increasing mean dose of 140 mg/m^2/day, 167 mg/m^2/day, and 196 mg/m^2/day, respectively. The OS of 9.93 and 11.80 are higher than the highest reported in the 65 trials reported in the literature during 1997-2015 (range=2.50-9.20/median=5.50). The corresponding PFS values were in line with reported literature (range=0.00-7.65/median=2.43). […] Trabedersen itself was not having an impact on the tumor (FIG. 1).

[4] = Acute single dose toxicity in rats; type: in vivo
Description: (§4) The clinical starting dose for the 7-days-on and 7-days-off schedule was based on the Lowest-Observed-Adverse-Effect-Level (LOAEL) devoid of severe toxicity in Cynomolgus monkeys as the most relevant species. This LOAEL of 4 mg/kg body weight (b.w.)/day is equivalent to approximately 1.3 mg/kg b.w./day or 48 mg/m^2/day on a body surface area basis in human adults. These numbers were rounded down and the safe starting dose was defined at 40 mg/m^2/day, equivalent to approximately 1 mg/kg b.w./day in humans. An alternative approach would have been based on the lowest lethal dose (LLD) of 300 mg/kg b.w. obtained in the acute single dose toxicity study in mice (in rats it was determined at 1000 mg/kg), at which 1 of 10 mice died (LLD10). According to the standard method, 10% of this dose (30 mg/kg) on a body surface area basis would then be defined as the clinical starting dose resulting in 90 mg/m^2/day. In the end, the lower of the two alternatives was chosen as starting dose.

[5] = Preclinical toxicology, LOAEL in Cynomolgus monkeys; type: in vivo
Description: as §4

[6] = Acute single dose toxicity study in mice; type: in vivo; settings: 1 of 10 mice died (LLD10)
Description: as §4

WiDr colon cancer cells = experiment: Cellular proliferation of WiDr colon cancer cells in vitro; type: cell-based
Excerpt: as §1

A-172 glioma cells = experiment: Proliferation of A-172 glioma cells; type: cell-based
Description: as §2, §3

TGFβ2 [7] = experiment: TGFβ2 secretion/expression in WiDr colon cancer cells; type: cell-based
Excerpt: as §1

[8] = AP12009 in combination with TMZ
[9] = FIG. 1, trabedersen as second line treatment
[10] = second line pancreatic cancer patients, 4 days on/10 days off, mean dose 140 mg/m^2/day (N=6)
[11] = second line pancreatic cancer patients, 4 days on/10 days off, mean dose 167 mg/m^2/day (N=11)
[12] = second line pancreatic cancer patients, 4 days on/10 days off, mean dose 196 mg/m^2/day (N=5)
[13] = converted from Cynomolgus LOAEL

trabedersen: TGF-beta2 specific phosphorothioate antisense oligodeoxynucleotide with the sequence 5′-CGGCATGTCTATTTTGTA-3′ (SEQ ID No: 1) (antisense dC*dG*dG*dC*dA*dT*dG*dT*dC*dT*dA*dT*dT*dT*dT*dG*dT*dA)
effect on proliferation of adding AP12009 to 5-FU compared with 5-FU alone [1]: did not result in any additional inhibition of proliferation
cell proliferation, % of untreated control ([1]; HUP-T3, 10 μM AP12009 monotherapy): 53%
combination effect on inhibition of TGFβ2 secretion (TGFβ2 [2]; [8]): additive effect
effect on TGFβ2 (TGFβ2 [2]; monotherapy, 7 days): strongly reduced
TGFβ2 expression, % of untreated control (TGFβ2 [3]; 10 μM AP12009 monotherapy): 42%
combination effect on inhibition of TGFβ2 expression (TGFβ2 [3]; 5-FU added to 10 μM AP12009): sub-additive or even antagonistic effects
OS (pancreatic cancer; 4/10 cohort treated with subsequent chemotherapies, p=0.0023, Log-rank): 14.7 mos
OS (pancreatic cancer; 4/10 cohort without subsequent chemotherapies): 2.93 mos
OS compared to reported median OS (pancreatic cancer; [9]): higher than reported in the literature
PFS compared to reported median PFS (pancreatic cancer; [9]): not significantly different
effect on the tumor, as indicated by overall survival rate (pancreatic cancer; FIG. 3, trabedersen alone): does not have a significant effect on the tumor
effect on overall survival rate (pancreatic cancer; FIG. 3, trabedersen therapy followed by chemotherapy): significant increase in the overall survival rate
OS (pancreatic cancer; chemotherapy on 2nd line followed by trabedersen 4/10 regimen as third line (N=9), p=0.046 vs trabedersen first): 2.80 mos
OS (pancreatic cancer; [10]): 5.60 months
PFS (pancreatic cancer; [10]): 1.87 months
OS (pancreatic cancer; [11]): 9.93 months
PFS (pancreatic cancer; [11]): 1.87 months
OS (pancreatic cancer; [12]): 11.80 months
PFS (pancreatic cancer; [12]): 2.72 months
OS (pancreatic cancer; trabedersen on 2nd line followed with subsequent therapies (N=11), p=0.046, Log-rank): 9.93 mos
lowest lethal dose (LLD) [4]: 1000 mg/kg
Lowest-Observed-Adverse-Effect-Level (LOAEL) devoid of severe toxicity ([5]; Cynomolgus monkeys): 4 mg/kg body weight (b.w.)/day
LOAEL, equivalent in human adults [5, 13]: approximately 1.3 mg/kg b.w./day
LOAEL, equivalent in human adults on a body surface area basis [5, 13]: ~48 mg/m^2/day
lowest lethal dose (LLD) [6]: 300 mg/kg b.w.
cell proliferation, % of untreated control (WiDr colon cancer cells; 10 μM AP12009): 76%
combination effect on cell proliferation (WiDr colon cancer cells; 10 μM AP12009 and 5-FU): sub-additive effects
combination effect on cell proliferation (A-172 glioma cells; [8]): no reproducible beneficial effect
effect on cell proliferation (A-172 glioma cells; monotherapy, 7 days): slightly reduced
TGFβ2 expression, % of untreated control (TGFβ2 [7]; 10 μM AP12009): 54%
combination effect on TGFβ2 expression (TGFβ2 [7]; 10 μM AP12009 and 5-FU): sub-additive effects

Source: patent publication US9963703B2, “Compositions and methods for treating pancreatic cancer” (Autotelic LLC, priority 2016, dated 2018)
